Literature values as cited in PMC2918392 (Journal of medicinal chemistry, 2010).

Legend:
µ-opioid receptor [1] = system: µ-opioid receptor
µ-opioid receptor [2] = settings: see also ref 1
[3] = system: µ opioid receptors (guinea pig ileum); settings: read-out: Functional Bioactivity GPI (IC50), ± S.E.M.

## Tyr-Pro-Trp-Phe-NH2 [EM-1]
µ-opioid receptor [1]
  affinity and selectivity of activation of µ-opioid receptors, in words: high affinity and selectivity

## Tyr-Pro-Phe-Phe-NH2 [EM-2]
µ-opioid receptor [2]
  µ-opioid receptor selectivity, in words: c Data from reference 16. Binding affinity based on competition against [^3H]naloxone in rat brain membranes. Data were not presented on the affinity of EM2 at the δ-opioid receptor in that preparation, as EM was shown to be highly selective for µ-opioid receptors (see also reference 1).
[3]
  IC50: 0.015 ± 0.002 µM
µ-opioid receptor [1]
  affinity and selectivity of activation of µ-opioid receptors, in words: high affinity and selectivity

## Tyr-Pro-Phe-Phe-OH
µ-opioid receptor [1]; C-terminal free acid
  µ-opioid receptor agonist activity, in words: completely devoid of µ-opioid receptor agonist activity

## Tyr-Pro-Phe-(2S,3S)-β-MePhe-NH2
µ-opioid receptor [1]
  activity among EM analogues containing β-MePhe stereoisomers, in words: highest activity
